Each block holds one compound with its values, some of them ahead of it.
Tested on: 857933-349-R-J2-PDC complex spheroids, viability
Assay: Anticancer human tumor 857933-349-R-J2-PDC patient-derived colon adenocarcinoma cell line growth inhibition [GQUAD]
Settings: for IC50: curve of first compound; for viability, T/C: stronger effect = lower value
Summary of the method: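 Tumor cells were grown as complex spheroids with HUVEC endothelial cells and mesenchymal stem cells as stroma. G-quadruplex stabilizers were combined with targeted agents over half-log dilutions from near the clinical Cmax, or from 10 microM.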

[1] = second compound 0.0316 µM, first compound 0.000999 µM
[2] = second compound 0.0316 µM, first compound 0.00316 µM
[3] = second compound 0.0316 µM, first compound 0.00999 µM
[4] = second compound 0.0316 µM, first compound 0.0316 µM
[5] = second compound 0.0316 µM, first compound 0.0999 µM
[6] = second compound 0.0316 µM, first compound 0.316 µM
[7] = second compound 0.1 µM, first compound 0.000999 µM
[8] = second compound 0.1 µM, first compound 0.00316 µM
[9] = second compound 0.1 µM, first compound 0.00999 µM
[10] = second compound 0.1 µM, first compound 0.0316 µM
[11] = second compound 0.1 µM, first compound 0.0999 µM
[12] = second compound 0.1 µM, first compound 0.316 µM
[13] = second compound 0.316 µM, first compound 0.000999 µM
[14] = second compound 0.316 µM, first compound 0.00316 µM
[15] = second compound 0.316 µM, first compound 0.00999 µM
[16] = second compound 0.316 µM, first compound 0.0316 µM
[17] = second compound 0.316 µM, first compound 0.0999 µM
[18] = second compound 0.316 µM, first compound 0.316 µM
[19] = second compound 1 µM, first compound 0.000999 µM
[20] = second compound 1 µM, first compound 0.00316 µM
[21] = second compound 1 µM, first compound 0.00999 µM
[22] = second compound 1 µM, first compound 0.0316 µM
[23] = second compound 1 µM, first compound 0.0999 µM
[24] = second compound 1 µM, first compound 0.316 µM
[25] = second compound 3.16 µM, first compound 0.000999 µM
[26] = second compound 3.16 µM, first compound 0.00316 µM
[27] = second compound 3.16 µM, first compound 0.00999 µM
[28] = second compound 3.16 µM, first compound 0.0316 µM
[29] = second compound 3.16 µM, first compound 0.0999 µM
[30] = second compound 3.16 µM, first compound 0.316 µM
[31] = second compound 10 µM, first compound 0.000999 µM
[32] = second compound 10 µM, first compound 0.00316 µM
[33] = second compound 10 µM, first compound 0.00999 µM
[34] = second compound 10 µM, first compound 0.0316 µM
[35] = second compound 10 µM, first compound 0.0999 µM
[36] = second compound 10 µM, first compound 0.316 µM
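Further: spheroids exposed to compounds for one week before readout.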
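Wherever viability, T/C is given: percent viability relative to vehicle DMSO wells taken as 100%.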

Compound: CCc1c2c(nc3ccc(O)cc13)-c1cc3c(c(=O)n1C2)COC(=O)[C@]3(O)CC + Cc1[nH]c2ccc(F)cc2c1-c1nc2c3cccnc3c3ncccc3c2[nH]1
IC50 (second compound 0.0316 µM): 8.64 nM
IC50 (second compound 0.1 µM): 5.42 nM
IC50 (second compound 0.316 µM): 9.75 nM
IC50 (second compound 1 µM): 8.5 nM
IC50 (second compound 3.16 µM): 9.46 nM
IC50 (second compound 10 µM): 8.53 nM
viability, T/C [1]: 79.3%
viability, T/C [2]: 63%
viability, T/C [3]: 51.5%
viability, T/C [4]: 24.8%
viability, T/C [5]: 14.7%
viability, T/C [6]: 12.2%
viability, T/C [7]: 80.2%
viability, T/C [8]: 54.5%
viability, T/C [9]: 45.5%
viability, T/C [10]: 26.5%
viability, T/C [11]: 15.3%
viability, T/C [12]: 11.1%
viability, T/C [13]: 73.5%
viability, T/C [14]: 72.6%
viability, T/C [15]: 47.9%
viability, T/C [16]: 25%
viability, T/C [17]: 15.4%
viability, T/C [18]: 11.4%
viability, T/C [19]: 74.8%
viability, T/C [20]: 63.2%
viability, T/C [21]: 49.8%
viability, T/C [22]: 24.4%
viability, T/C [23]: 16.6%
viability, T/C [24]: 14.7%
viability, T/C [25]: 80.5%
viability, T/C [26]: 60.1%
viability, T/C [27]: 55.9%
viability, T/C [28]: 27.4%
viability, T/C [29]: 15.7%
viability, T/C [30]: 13%
viability, T/C [31]: 80.7%
viability, T/C [32]: 54.5%
viability, T/C [33]: 59.2%
viability, T/C [34]: 28.1%
viability, T/C [35]: 18.7%
viability, T/C [36]: 14.6%

Compound: CCc1c2c(nc3ccc(O)cc13)-c1cc3c(c(=O)n1C2)COC(=O)[C@]3(O)CC + CN(C)c1ccc(Nc2c3ccc(NC(=O)CCN4CCCC4)cc3nc3cc(NC(=O)CCN4CCCC4)ccc23)cc1
IC50 (second compound 0.0316 µM): 16.1 nM
IC50 (second compound 0.1 µM): 15.6 nM
IC50 (second compound 0.316 µM): 15.3 nM
IC50 (second compound 1 µM): 13.2 nM
IC50 (second compound 3.16 µM): 14.5 nM
IC50 (second compound 10 µM): 24 nM
viability, T/C [1]: 95.6%
viability, T/C [2]: 78.4%
viability, T/C [3]: 55.4%
viability, T/C [4]: 40.4%
viability, T/C [5]: 21.6%
viability, T/C [6]: 5.95%
viability, T/C [7]: 94.2%
viability, T/C [8]: 81.8%
viability, T/C [9]: 59.9%
viability, T/C [10]: 33.8%
viability, T/C [11]: 18.5%
viability, T/C [12]: 7.59%
viability, T/C [13]: 98%
viability, T/C [14]: 82.3%
viability, T/C [15]: 57.6%
viability, T/C [16]: 34%
viability, T/C [17]: 21.5%
viability, T/C [18]: 5.15%
viability, T/C [19]: 93.5%
viability, T/C [20]: 77%
viability, T/C [21]: 55.9%
viability, T/C [22]: 31.4%
viability, T/C [23]: 20.2%
viability, T/C [24]: 5.78%
viability, T/C [25]: 89.9%
viability, T/C [26]: 77.6%
viability, T/C [27]: 58.3%
viability, T/C [28]: 31.9%
viability, T/C [29]: 21.7%
viability, T/C [30]: 7.69%
viability, T/C [31]: 70.4%
viability, T/C [32]: 67.4%
viability, T/C [33]: 59%
viability, T/C [34]: 48.2%
viability, T/C [35]: 27.8%
viability, T/C [36]: 14.2%

IC50 (second compound 0.0316 µM): 538 nM
IC50 (second compound 0.1 µM): 372 nM
IC50 (second compound 0.316 µM): < 31.6 nM
IC50 (second compound 1 µM): < 31.6 nM
IC50 (second compound 3.16 µM): < 31.6 nM
IC50 (second compound 10 µM): < 31.6 nM
Compound: O=C(NO)c1cnc(N2CCN(S(=O)(=O)c3ccc4ccccc4c3)CC2)nc1 + Cc1cnc(CNC(=O)c2c(=O)c3ccc(N4CCCN(C)CC4)nc3n3c2sc2ccccc23)cn1
viability, T/C [4]: 95.5%
viability, T/C (second compound 0.0316 µM, first compound 0.1 µM): 79.8%
viability, T/C [6]: 79.5%
viability, T/C (second compound 0.0316 µM, first compound 1 µM): 15.9%
viability, T/C (second compound 0.0316 µM, first compound 3.16 µM): 0.04%
viability, T/C (second compound 0.0316 µM, first compound 10 µM): 0.06%
viability, T/C [10]: 65%
viability, T/C (second compound 0.1 µM, first compound 0.1 µM): 69.3%
viability, T/C [12]: 56%
viability, T/C (second compound 0.1 µM, first compound 1 µM): 11.7%
viability, T/C (second compound 0.1 µM, first compound 3.16 µM): 0.05%
viability, T/C (second compound 0.1 µM, first compound 10 µM): 0.08%
viability, T/C [16]: 19.9%
viability, T/C (second compound 0.316 µM, first compound 0.1 µM): 24.9%
viability, T/C [18]: 24.2%
viability, T/C (second compound 0.316 µM, first compound 1 µM): 1.65%
viability, T/C (second compound 0.316 µM, first compound 3.16 µM): 0.03%
viability, T/C (second compound 0.316 µM, first compound 10 µM): 0.07%
viability, T/C [22]: 4.31%
viability, T/C (second compound 1 µM, first compound 0.1 µM): 2.8%
viability, T/C [24]: 1.46%
viability, T/C (second compound 1 µM, first compound 1 µM): 0.09%
viability, T/C (second compound 1 µM, first compound 3.16 µM): 0.04%
viability, T/C (second compound 1 µM, first compound 10 µM): 0.07%
viability, T/C [28]: 1.32%
viability, T/C (second compound 3.16 µM, first compound 0.1 µM): 0.92%
viability, T/C [30]: 0.23%
viability, T/C (second compound 3.16 µM, first compound 1 µM): 0.12%
viability, T/C (second compound 3.16 µM, first compound 3.16 µM): 0.08%
viability, T/C (second compound 3.16 µM, first compound 10 µM): 0.09%
viability, T/C [34]: 0.16%
viability, T/C (second compound 10 µM, first compound 0.1 µM): 0.2%
viability, T/C [36]: 0.2%
viability, T/C (second compound 10 µM, first compound 1 µM): 0.14%
viability, T/C (second compound 10 µM, first compound 3.16 µM): 0.15%
viability, T/C (second compound 10 µM, first compound 10 µM): 0.18%
